# Measured values published in US6340689B1 (priority 1999, dated 2002).
# Experiments:
# [1] = tested on: L. pneumophila serogroup 5; test: microbe, parasite or virus in culture; assay type: cell-based; conditions: Legionella pneumophila; for MIC: 48 h, read-out: MIC Range
# [2] = tested on: L. pneumophila serogroup 2; test: microbe, parasite or virus in culture; assay type: cell-based; conditions: Legionella pneumophila; for MIC: 48 h, read-out: MIC Range
# [3] = tested on: L. pneumophila serogroup 7; test: microbe, parasite or virus in culture; assay type: cell-based; conditions: Legionella pneumophila; for MIC: 48 h, read-out: MIC Range
# [4] = tested on: L. longbeacheae; test: organism not typed; assay type: cell-based; conditions: for MIC: 48 h, read-out: MIC Range
# [5] = tested on: Erythromycin-susceptible Legionella spp. other than L. pneumophila; assay type: cell-based; conditions: Erythromycin-susceptible Legionella spp. (n = 13); 4 × MIC; mean ± SD
# [6] = tested on: L. pneumophila serogroup 8, 9; test: microbe, parasite or virus in culture; assay type: cell-based; conditions: Legionella pneumophila; for MIC: 48 h, read-out: MIC Range
# [7] = tested on: L. pneumophila serogroup 1; test: microbe, parasite or virus in culture; assay type: cell-based, Legionella pneumophila; conditions: Legionella pneumophila; for MIC: 48 h, read-out: MIC Range; for MIC90: L. pneumophila serogroup 1 (n = 85)
# [8] = tested on: isolates of Legionella pneumophila and other Legionella spp.; test: microbe, parasite or virus in culture; assay type: cell-based
# [9] = tested on: L. dumoffii; test: organism not typed; assay type: cell-based; conditions: for MIC: 48 h, read-out: MIC Range
# [10] = tested on: Other Legionella spp.; test: microbe, parasite or virus in culture; assay type: cell-based; conditions: for MIC: 48 h, read-out: MIC Range
# [11] = tested on: Erythromycin-susceptible L. pneumophila; assay type: cell-based, Legionella pneumophila; conditions: Erythromycin-susceptible L. pneumophila (n = 15); 4 × MIC; mean ± SD
# [12] = tested on: L. pneumophila serogroup 6; test: microbe, parasite or virus in culture; assay type: cell-based; conditions: Legionella pneumophila; for MIC: 48 h, read-out: MIC Range
# [13] = tested on: L. micadadei; test: organism not typed; assay type: cell-based, L. micdadei; conditions: for MIC: 48 h, read-out: MIC Range
# [14] = tested on: L. pneumophila serogroup 4; test: microbe, parasite or virus in culture; assay type: cell-based; conditions: Legionella pneumophila; for MIC: 48 h, read-out: MIC Range
# [15] = tested on: L. pneumophila serogroup 3; test: microbe, parasite or virus in culture; assay type: cell-based; conditions: Legionella pneumophila; for MIC: 48 h, read-out: MIC Range
SMILES,MIC50 [1] [µg/mL],MIC90 [1] [µg/mL],MIC [1] [µg/mL],MIC50 [2] [µg/mL],MIC90 [2] [µg/mL],MIC [2] [µg/mL],MIC50 [3] [µg/mL],MIC90 [3] [µg/mL],MIC [3] [µg/mL],MIC50 [4] [µg/mL],MIC90 [4] [µg/mL],MIC [4] [µg/mL],Mean PAE [5] [h],MIC50 [6] [µg/mL],MIC90 [6] [µg/mL],MIC [6] [µg/mL],MIC50 [7] [µg/mL],MIC [7] [µg/mL],MIC90 [7] [µg/mL],MIC50 [9] [µg/mL],other results
C[C@H]1COc2c(N3CCN(C)CC3)c(F)cc3c(=O)c(C(=O)O)cn1c23 [Levofloxacin],0.008,0.016,0.004 to 0.016,0.008,0.008,0.004 to 0.016,0.008,0.016,0.008 to 0.016,0.016,0.016,0.008 to 0.016,1.35 ± 1,0.008,0.016,0.008 to 0.016,0.016,0.004 to 0.016,0.016,0.016,MIC90 [8]: 0.016 µg/mL; MIC90 [9]: 0.016 µg/mL; MIC [9]: 0.016 µg/mL; MIC50 [10]: 0.016 µg/mL; MIC90 [10]: 0.016 µg/mL; MIC [10]: 0.008 to 0.06 µg/mL; Mean PAE [11]: 2.14 ± 2 h; MIC50 [12]: 0.008 µg/mL; MIC90 [12]: 0.016 µg/mL; MIC [12]: 0.008 to 0.016 µg/mL; MIC50 [13]: 0.016 µg/mL; MIC90 [13]: 0.016 µg/mL; MIC [13]: 0.008 to 0.016 µg/mL; MIC50 [14]: 0.016 µg/mL; MIC90 [14]: 0.016 µg/mL; MIC [14]: 0.004 to 0.016 µg/mL; MIC50 [15]: 0.008 µg/mL; MIC90 [15]: 0.016 µg/mL; MIC [15]: 0.008 to 0.016 µg/mL
CC[C@H]1OC(=O)[C@H](C)[C@@H](O[C@H]2C[C@@](C)(OC)[C@@H](O)[C@H](C)O2)[C@H](C)[C@@H](O[C@@H]2O[C@H](C)C[C@H](N(C)C)[C@H]2O)[C@](C)(O)C[C@@H](C)C(=O)[C@H](C)[C@@H](O)[C@]1(C)O [Erythromycin],0.25,0.5,0.06 to 1,0.25,0.25,0.008 to 0.5,0.12,0.5,0.12 to 0.5,0.25,0.5,0.008 to 0.5,2.06 ± 2,0.25,0.25,0.25,0.25,0.03 to 1,1,0.25,MIC90 [9]: 0.5 µg/mL; MIC [9]: 0.25 to 0.5 µg/mL; MIC50 [10]: 0.5 µg/mL; MIC90 [10]: 1 µg/mL; MIC [10]: 0.016 to 1 µg/mL; Mean PAE [11]: 0.93 ± 1 h; MIC50 [12]: 0.12 µg/mL; MIC90 [12]: 0.25 µg/mL; MIC [12]: 0.008 to 0.25 µg/mL; MIC50 [13]: 0.5 µg/mL; MIC90 [13]: 1 µg/mL; MIC [13]: 0.25 to 1 µg/mL; MIC50 [14]: 0.5 µg/mL; MIC90 [14]: 0.5 µg/mL; MIC [14]: 0.016 to 0.5 µg/mL; MIC50 [15]: 0.25 µg/mL; MIC90 [15]: 0.5 µg/mL; MIC [15]: 0.06 to 0.5 µg/mL
CO[C@H]1/C=C/O[C@@]2(C)Oc3c(C)c(O)c4c(O)c(c(/C=N/N5CCN(C)CC5)c(O)c4c3C2=O)NC(=O)/C(C)=C\C=C\[C@H](C)[C@H](O)[C@@H](C)[C@@H](O)[C@@H](C)[C@H](OC(C)=O)[C@@H]1C [Rifampicin],≤ 0.004,≤ 0.004,≤ 0.004,≤ 0.004,≤ 0.004,≤ 0.004,≤ 0.004,≤ 0.004,≤ 0.004,≤ 0.004,0.06,0.004 to 0.06,3.09 ± 4,≤ 0.004,≤ 0.004,≤ 0.004,≤ 0.004,0.004 to 0.008,0.008,0.008,MIC90 [8]: ≤ 0.008 µg/mL; MIC90 [9]: 0.016 µg/mL; MIC [9]: 0.004 to 0.03 µg/mL; MIC50 [10]: ≤ 0.004 µg/mL; MIC90 [10]: 0.008 µg/mL; MIC [10]: 0.004 to 0.008 µg/mL; Mean PAE [11]: 2.86 ± 5 h; MIC50 [12]: ≤ 0.004 µg/mL; MIC90 [12]: ≤ 0.004 µg/mL; MIC [12]: 0.004 to 0.008 µg/mL; MIC50 [13]: 0.008 µg/mL; MIC90 [13]: 0.008 µg/mL; MIC [13]: 0.008 µg/mL; MIC50 [14]: ≤ 0.004 µg/mL; MIC90 [14]: ≤ 0.004 µg/mL; MIC [14]: 0.004 to 0.008 µg/mL; MIC50 [15]: ≤ 0.004 µg/mL; MIC90 [15]: ≤ 0.004 µg/mL; MIC [15]: ≤ 0.004 µg/mL
